Results on six molecules are retold here after article PMC8007834, “Anti-estrogenic and anti-aromatase activities of citrus peels major compounds in breast cancer” (Scientific Reports, 2021).

The structures appear in SMILES notation. Converted amounts (≈) assume the structure as drawn. Some results are limits rather than exact numbers.

The test system of one data set is MCF-7. Kind of data set: SRB cytotoxicity assay on MCF7. Format: cell-based, human. As to conditions: Homo sapiens, MCF7, ± SD, read-out: IC50 values, cytotoxic effect on MCF7. The protocol: (§1) The assessment was performed in the National Cancer Institute in Egypt (NCI). The half maximal inhibitory concentration (IC50) values were then calculated from three independent experiments, three replicates each for each sample.

The next data set relates to T47D. Kind of data set: SRB cytotoxicity assay on T47D. The format is cell-based, human. Conditions: Homo sapiens, T47D, ± SD, read-out: IC50 values, cytotoxic effect on T47D. On the procedure: as §1
(In general: The SRB assay estimates cell density from bound dye.)

Data set [1] is described as follows: SRB cytotoxicity assay on normal HFB4 cells. Format: cell-based, human. Conditions: human, normal HFB4 cells, ± SD, read-out: IC50 values, cytotoxic effect on HFB4. On the procedure:
The cytotoxic activity of the ethanolic extracts of the peels along with the isolated major phenolics was tested against two human estrogen-dependent breast cancer cell lines, namely, MCF-7 and T47D, as well as the normal human HFB4 cells for assessment of toxicity, using the sulforhodamine B (SRB) assay. The assessment was performed in the National Cancer Institute in Egypt (NCI). The half maximal inhibitory concentration (IC50) values were then calculated from three independent experiments, three replicates each for each sample.

Data set [2] has as its system Immature female Swiss albino mice. Kind of data set: In vivo anti-estrogenic activity assay (with estradiol). The protocol:
(§2) Immature female Swiss albino mice (8-13 g) were obtained from the animal house of the Faculty of Pharmacy, The British University in Egypt. All experimental procedures were conducted in compliance with the Animal Research: Reporting of In Vivo Experiments (ARRIVE) guidelines and the National Institutes of Health guide for the care and use of Laboratory animals (NIH Publication No. 85-23, revised 2011) and were approved by the Ethics Committee, Faculty of Pharmacy, The British University in Egypt (Ex-2101). All experiments were performed during the light phase of a light/dark cycle that was started 1 week after acclimatization. The room temperature was adjusted at 25 ± 2 °C. Mice had free access to food and water during the experiments. The experimental design was adopted from[27],[28]. The mice were randomly divided into 9 groups (7-8 mice each) as follows: Group 1: Negative control (NC) receiving only olive oil, s.c.; Group 2: […] For estrogenic activity, Group 3: Genistein phytoestrogen positive control (Gein.) treated group; Group 4: Quercetin (Qrt.) treated group; Group 5: Naringenin (Narn.) treated group and Group 6: Naringin (Nar.) treated group. For anti-estrogenic activity, estradiol was given after treatments by 6 h for Groups 7, 8 and 9 representing […]., respectively. All treatments including genistein were given at a dose of 30 mg/kg dissolved in Tween 80 (1%), i.p., for 7 days. The animals' weights were recorded daily to ensure the safety of the doses used. On the 7th day, the animals were sacrificed, the morphological appearance of the livers was observed, and the uteri were also isolated and weighed. The in vivo estrogenic and anti-estrogenic activities were assessed. The vaginal opening on each day of the study was checked as a sign of puberty. On the 7th day, vaginal swab was taken from the opened vagina to examine the cornification level under light microscope (4× lens). The uteri were excised and weighed after sacrification of mice under anesthesia.

For data set [3] the test system is unchanged. Kind of data set: In vivo estrogenic activity assay. As to conditions: 30 mg/kg i.p. The protocol:
as §2

[4] abbreviates: flavonoid 30 mg/kg i.p. plus estradiol 12.5 µg/kg s.c., estradiol alone as positive control.

With `COc1ccc(-c2cc(=O)c3c(OC)c(OC)c(OC)c(OC)c3o2)cc1OC` [C1, 5,6,7,8,3′,4′-hexamethoxy flavone], the IC50 (in the data set with MCF-7; in the data set with T47D; in data set [1]) was over 50 µg/mL each time.
For the molecule `COc1ccc(-c2cc(=O)c3c(O)cc(O[C@@H]4O[C@H](CO[C@@H]5O[C@@H](C)[C@H](O)[C@@H](O)[C@H]5O)[C@@H](O)[C@H](O)[C@H]4O)cc3o2)cc1O` [C3, 5,3′-dihydroxy-4′-methoxy flavone-7O-α-L-rhamnopyranosyl (1 → 6)β-D-glucopyranoside], the 50% inhibitory concentration (IC50) (with MCF-7; in the data set on T47D; in data set [1]) was over 50 µg/mL each time.
Turning to `COc1ccc(C2CC(=O)c3c(O)cc(O)cc3O2)cc1O` (stereo not drawn) [C6, 5,7,3′-trihydroxy-4′-methoxy flavanone], the IC50 – broadly, the concentration that gives 50% inhibition – in the data set on MCF-7 is 4.96 ± 0.89 µg/mL (≈ 16.4 µM); with T47D it was 3.53 ± 0.19 µg/mL (≈ 11.7 µM); in data set [1], over 50 µg/mL.
As for `C[C@@H]1O[C@@H](OC[C@H]2O[C@@H](Oc3c(-c4ccc(O)c(O)c4)oc4cc(O)cc(O)c4c3=O)[C@H](O)[C@@H](O)[C@@H]2O)[C@H](O)[C@H](O)[C@H]1O` [C7, 5,7,3′,4′-tetrahydroxy flavon-3O-α-L-rhamnopyranosyl (1 → 6)β-D-glucopyranoside], the concentration for half-maximal inhibition (IC50) (in the data set on MCF-7; in the data set on T47D; in data set [1]) was over 50 µg/mL each time.
As for `C[C@]12CC[C@@H]3c4ccc(OC(=O)c5ccccc5)cc4CC[C@H]3[C@@H]1CC[C@@H]2O` [estradiol, Estradiol benzoate, reference compound], in data set [2] (7 days treatment), the body weight is given as 15.6 ± 1.8 g. This molecule displayed a uterine weight in data set [2] (estradiol alone 12.5 µg/kg s.c.) of 215.0 ± 64.4 mg. In data set [2] (setting [4]), the “day on which vaginal opening reached 100%” value amounted to 5 days and the “day on which vaginal opening started (delay up to day)” value turned out to be 2 days.
Regarding `O=c1c(-c2ccc(O)cc2)coc2cc(O)cc(O)c12` [genistein, reference compound], the average uterine weight in data set [3] (7 days, no estradiol) turned out to be 20.0 ± 7.5 mg. For the same molecule, the vaginal cornification entry in data set [3] (day 7 swab) is “mild vaginal cornification”.
